Assay results reported in publication PMC9745799, “Polymyxin Stereochemistry and Its Role in Antibacterial Activity and Outer Membrane Disruption” (ACS Infectious Diseases, 2022).
Values after ≈ are worked out from the molar mass of the structure shown. Values joined by “and” are separate entries in the source; they are usually repeats but may differ in a detail not shown here. Equal entries are not always repeated. Positions of bridges follow the written chain, without caps; N, C: chain ends. Non-standard residues stand in square brackets, D forms with d. Residues, ends and D or L forms follow the SMILES beside them. *: point of attachment. dDab = NCC[C@@H](N)C(=O)O; Heptanoyl = CCCCCCC(=O)*

Assays:
E. coli JW3594 (ΔwaaD) = format: cell-based; conditions: truncated LPS, CLSI microbroth dilution, CAMHB, 18 h, 37 °C, triplicate
Description: (§1) MICs of compounds were determined following CLSI guidelines using the microbroth dilution method in polypropylene plates. Selected Gram-negative bacterial strains (see Table S2 for strain sources) were taken from glycerol stocks and grown overnight on blood agar. Individual colonies were selected and grown in Tryptic Soy Broth (TSB) to an OD600 of 0.5. Compounds were diluted in Mueller Hinton Broth (MHB) supplemented with Mg^2+ and Ca^2+ at final concentrations of 12 and 20 mg/L, respectively (CAMHB). 50 μL was used for each well, and compounds were assessed in triplicates. Bacterial culture was diluted in CAMHB to 10^6 CFU/mL, yielding 5 × 10^5 CFU/mL upon addition of 50 μL of culture to 50 μL of compound solution. Positive and negative (sterility) controls were present on each plate. Plates were sealed with a semipermeable membrane and incubated for 22 h (A. baumannii) or 18 h (other strains) under shaking at 37 °C.

E. coli JW3596 (ΔwaaC) = format: cell-based; conditions: truncated LPS, CLSI microbroth dilution, CAMHB, 18 h, 37 °C, triplicate
Description: as §1

E. coli mcr-1 = format: cell-based; conditions: CLSI microbroth dilution, CAMHB, 18 h, 37 °C, triplicate
Description: as §1

P. aeruginosa ATCC 10145 = format: cell-based; conditions: P. aeruginosa ATCC 10145
Description: as §1

P. aeruginosa NRZ03961 = format: cell-based; conditions: P. aeruginosa NRZ03961; CLSI microbroth dilution, CAMHB, 18 h, 37 °C, triplicate
Description: as §1

[1] = tested on: polymyxin-resistant (mcr-1 positive) E. coli; assay: microbe, parasite or virus in culture; format: cell-based; conditions: E. coli mcr-1, checkerboard
Description: (§2) Selected Gram-negative bacterial strains were taken from glycerol stocks and grown overnight on blood agar. A single colony was inoculated in TSB broth at 37 °C until an optical density of 0.5 at 600 nm (OD600) was reached. The bacterial suspension was diluted in freshly prepared CAMHB to 10^6 CFU/mL. Compounds were diluted along the plate, using 25 μL of CAMHB for each dilution. Antibiotic concentrations were prepared separately in a multiwell reservoir, including a control without antibiotic. Of each antibiotic stock, 25 μL was added to three columns to obtain triplicates for every condition. To each 50 μL containing well was then added 50 μL of the 10^6 CFU/mL bacterial suspension, and the plates were sealed with breathable seals. After incubation for 18 h at 37 °C while shaking, the seals were removed and the density of the bacterial suspensions was measured at 600 nm (OD600) using a Tecan Spark plate reader. The OD600 values were transformed to a 2D gradient with the negative control as the minimum and the positive control as the maximum. The FICI was calculated using the following equation: [drawing 1] with MSCant and MSCcomp indicating the optimal synergistic concentration of antibiotic and compound and MICant and MICcomp, the corresponding MICs of the individual compounds. An FICI ≤ 0.5 indicates synergy.[48]

[2] = tested on: polymyxin-sensitive E. coli ATCC 25922; assay: microbe, parasite or virus in culture; format: cell-based; conditions: E. coli ATCC 25922
Description: as §2

[3] = tested on: E. coli ATCC 25922 (smooth LPS); assay: NPN uptake assay (outer membrane disruption); format: cell-based; conditions: NPN fluorescence after 1 h at RT, 5 mM HEPES pH 7.2 + 20 mM glucose, triplicates, result in words
Description: (§3) Bacteria were taken from glycerol stocks and grown in TSB overnight. Cultures were diluted either 50 or 100 times in Lysogeny Broth (LB) and grown at 37 °C to an OD600 of 0.5. Test compounds were prepared in HEPES buffer (5 mM, pH 7.2 + 20 mM glucose) and serially diluted (25 μL per well) on 1/2 the area of black 96-well plates with a transparent bottom. N-Phenyl-1-naphthylamine (NPN) was dissolved in acetone (0.5 mM) and diluted to 40 μM in HEPES buffer (5 mM, pH 7.2 + 20 mM glucose). 25 μL of the NPN solution was added to each well. The bacterial suspension was spin down (1000g, 10 min), and the remaining cell pellet was resuspended in half the original volume of HEPES buffer (5 mM, pH 7.2 + 20 mM glucose). 50 μL of bacterial suspension was added to each well. NPN fluorescence was measured after 1 h of incubation at RT with λex 355 ± 20 nm and λem 420 ± 20 nm. The measured fluorescence signal was corrected for NPN fluorescence in the absence of compounds (bacteria in buffer + NPN) and presented as relative fluorescence units (RFUs).

[4] = tested on: E. coli BW25113 (rough LPS); assay: NPN uptake assay (outer membrane disruption); format: cell-based; conditions: NPN fluorescence after 1 h at RT, 5 mM HEPES pH 7.2 + 20 mM glucose, triplicates, result in words
Description: as §3

[5] = tested on: polymyxin-resistant, mcr-1 positive E. coli; assay: NPN uptake assay (outer membrane disruption); format: cell-based; conditions: E. coli mcr-1 positive; NPN fluorescence after 1 h at RT, highest concentration tested 32 μg/mL, triplicates; result in words
Description: as §3

[6] = tested on: LPS from E. coli (O55:B5); assay: Isothermal titration calorimetry (ITC), LPS binding; conditions: compound (1 mM) into LPS (20 µM), 20 mM HEPES pH 7, 37 °C, mean and SD of three experiments
Description: Stock solutions of LPS (10 mg/mL, 0.5 mM) were prepared in 20 mM HEPES at pH 7 by suspension, sonication, and temperature cycling between 4 and 60 °C and stored overnight prior to use. LPS from E. coli (O55:B5) was used. Lipopeptide solutions (1 mM in 20 mM HEPES, pH 7) were titrated into a suspension of LPS (0.020 mM) in the same buffer. Control titrations included the titration of peptide into buffer and buffer into the LPS suspension to determine the corresponding heat of dilution. All binding experiments were performed using a MicroCal PEAQ-ITC Automated microcalorimeter (Malvern Panalytical Ltd., Malvern, UK). The samples were equilibrated to 37 °C prior to measurement. The titrations were conducted at 37 °C under constant stirring at 750 rpm. Each experiment consisted of an initial injection of 0.3 μL followed by 25 separate injections of 1.5 μL into the sample cell of 200 μL. The time between each injection was 180 s, and the measurements were performed with the reference power set at 5 μcal s^–1 and the feedback mode set at “low”. For all calculations performed, an estimated molecular weight of 20 kDa for LPS was applied. The calorimetric data thus obtained were analyzed using MicroCal PEAQ-ITC Analysis Software Version 1.20 (Malvern Panalytical Ltd., Malvern, UK), where the integrated heat signal is corrected for the heat of dilution of the titrant.

Work on `CCCCCCC(=O)N[C@H](CCN)C(=O)N[C@@H](C(=O)N[C@H](CCN)C(=O)N[C@@H]1CCNC(=O)[C@@H]([C@H](C)O)NC(=O)[C@@H](CCN)NC(=O)[C@@H](CCN)NC(=O)[C@@H](CC(C)C)NC(=O)[C@H](Cc2ccccc2)NC(=O)[C@@H](CCN)NC1=O)[C@H](C)O` [ent-PmxB4] (Heptanoyl-[dDab][dT][dDab][dDab][dDab]F[dL][dDab][dDab][dT]; lactam 4-C) yielded an MIC (E. coli JW3594 (ΔwaaD)) of 128 µg/mL (≈ 109 µM), an MIC (E. coli JW3596 (ΔwaaC)) of 128 µg/mL (≈ 109 µM) and an MIC (E. coli mcr-1) of 128 µg/mL (≈ 109 µM). The MIC in presence of PMBN (P. aeruginosa ATCC 10145; + PMBN (8 ug/mL)) was > 128 µg/mL, the MIC in presence of SPR741 (P. aeruginosa ATCC 10145; + SPR741 (8 ug/mL)) was > 128 µg/mL and the MIC (P. aeruginosa ATCC 10145; CLSI microbroth dilution, CAMHB, 18 h, 37 °C, triplicate) was >128 µg/mL. The MIC (P. aeruginosa NRZ03961) was >128 µg/mL, the MIC alone ([1]; substance alone) was 128 µg/mL and the FICI ([1]; combination with rifampicin, CAMHB, 18 h, 37 °C, OD600, FICI ≤ 0.5 indicates synergy) was 0.19 and 0.188. The MIC alone ([2]; checkerboard, substance alone) was 128 µg/mL, the MIC in combination ([2]; compound in combination with rifampicin, optimal synergistic concentration) was 8 µg/mL and the “OM disruption (NPN uptake)” value [3] was “moderate OM disruption”. The “OM disruption (NPN uptake)” value [4] was “moderate OM disruption”, the “OM disruption (NPN uptake)” value [5] was “full NPN uptake albeit at higher concentrations” and the “ΔΔH, maximum enthalpy observed after subtraction of dilution control” value [6] was -3.485 kcal/mol.
